How the values were obtained:
[1] = system: procedural pain in neonates; settings: glucose solution on the tongue; cited from earlier work
[2] = system: myocardial dysfunction resulting from globally induced ischemia during cardiac surgical procedures; assay type: in vivo, human
Source text: Inclusion criteria were: • Males or females aged 18 or older • Patients with documented coronary artery disease undergoing CABG with an ejection fraction (EF) of ≦35% based on echocardiography, radionuclide imaging or cardiac catheterization done within eight weeks of surgery. (If more than one method was used to evaluate EF during this period, the mean values of the various methods were ≦35%). • Patients undergoing single or double valve replacement with documented coronary artery disease also undergoing CABG; or patients undergoing single or double valve replacement without CABG • Serum creatinine of ≦2.35 mg/dl • For females of childbearing potential, a negative pregnancy test. • Signed consent forms. The test article, placebo or ribose, was dispensed according to computer-generated randomization schedule either for patients undergoing CABG only or for patients undergoing heart valve surgery +/-CABG. All patients received a high dose narcotic anaesthesia technique consisting of either fentanyl (50-100 μg/kg) or sufentanil (10-20 μg/kg) and midazolam. No restriction was placed on the type of anaesthetic agents administered. The anaesthesiologists and surgeons responsible for the care of the patents made the clinical decision to use inotropic support, intra-aortic balloon pump support or post bypass circulatory support based on their knowledge of patients requirements and accepted medical practice and without regard to test article status. The test article infusion was started intravenously at the time of aortic cross clamping and continued until the pulmonary artery catheters introducer was removed or for five days (120) hours whichever occurred first. The surgeons responsible for the clinical care of the patients removed the pulmonary artery catheter cordis without regard to test article stats. Hemodynamic measurements consisting of heart rate, blood pressure, pulmonary artery pressures, pulmonary capillary wedge pressure (PCWP), central venous pressure (CVP) and thermodilution cardiac index (CI) were obtained at the following time intervals: immediately prior to induction of anaesthesia, post induction of anaesthesia prior to sternotomy, post sternotomy prior to initiation of cardiopulmonary bypass, upon successful termination of cardiopulmonary bypass prior to sternal closure and prior to reversal of heparinization with protamine, post closure of the sternum, upon arrival in the intensive care unit and at one or two hour intervals until the pulmonary artery a catheter was removed. Transesophageal echocardiography data (H.P. Sonos OR, 5.0 MHz, Andover, Mass.) was collected at the following time intervals: post induction of anaesthesia prior to sternotomy, and immediately post closure of the sternum. Transthoracic echocardiography (H.P. Sonos 1500. 2.5 MHz, Andover, Mass.) measurements were made on day three and day seven of the study period. For both the transesophageal and transthoracic echocardiograms, the following long axis and short axis mid-papillary area changes were measured in triplicate by acoustic quantification techniques: end diastolic area (EDA), end systolic area (ESA), fractional area change (FAC), +dA/dt and -dA/dt. All area change data were also analyzed by manual off line analysis. EF was also determined off line using a long axis view. In addition, regional wall motion was quantified as the following: normal=1, hypokinetic=2, akinetic=3 and dyskinetic=4. The wall motion index score (WMIS) and percentage normal myocardium were calculated by reading a maximum of sixteen segments. Echocardiography data for evaluating wall motion and area change was analyzed only if greater than 75% of the endocardial border could be visualized through a complete cardiac cycle. […]

[3] = system: patients selected for OCBP revascularization; assay: presurgical oral ribose loading, off cardiopulmonary bypass (OCBP) revascularization trial; assay type: in vivo, human; settings: oral D-ribose preoperatively (24 patients) vs no ribose (20), baseline to post-operative, p<0.028
Source text: Patients with stable coronary artery disease or patients presenting with acute myocardial infarction may undergo revascularization using an “off” cardiopulmonary bypass procedure (“OCBP”). This procedure avoids the deleterious effects of cross-clamping in patients who can be selected for the procedure. The selection criteria include: accessibility of the grafts; number of the grafts; condition of the patient. When the area to be revascularized is at the back of the heart, the heart will need to be handled and rotated, which would interfere with the beating of the heart. If several grafts are needed, the time of operation is prolonged and the patient's heart will need to support circulation for a long time. Finally, a poorly functioning heart will need the assistance of the pump to support circulation. Nevertheless, in properly selected patients, the benefits of avoiding cross-clamping are substantial.
Forty-four adult patients were enrolled in a trial. At least one-third of the patents had sustained an acute myocardial infarction prior to presentation and pre-operative ejection fractions ranged from 30-72%. All patients were selected for OCBP revascularization with 20 patients comsuming no pre-operative ribose and 24 patients given oral D-ribose preoperatively, cardiac indices were measured at baseline and post-operatively. […]

[4] = system: recovery from general anaesthesia; assay: anecdotal reports, non-cardiac surgery with general anaesthesia; assay type: in vivo, human; settings: person, vs first operation
Source text: A. Anecdotal Results from Non-Cardiac Surgery with General Anaesthesia. […] For example, a person underwent two hip replacement operations, five months apart. With the second operation, they began taking oral ribose immediately after their recovery from anaesthesia. Their recovery to a feeling of alertness and energy was more rapid than after the first operation. Furthermore, their level of pain was less. Likewise, a person also underwent two knee replacement operations. With the second operation, they self-administered D-Ribose pre- and postoperatively. Their recovery to a feeling of alertness and energy was more rapid than after the first operation. Bauer et al. (Z. Geb. Neonatal 2001 May-June, 205(3):80-85) studied the efficacy of oral glucose for treating procedural pain in neonates. […] The authors proposed that the orogustatory stimulation by the sweet taste caused an endorphin release. It is not known whether the result seen was due to the local effect or to a systemic effect of glucose.

[5] = system: patients undergoing AVR with aortic cross clamping; assay: planned trial of preoperative oral plus intravenous D-Ribose before cross clamping (Example 3); assay type: in vivo, human; settings: oral D-Ribose preloading plus IV 100 mg/kg/hour with D-Glucose, vs placebo
Source text: A single-center, randomized, double-blinded placebo-controlled clinical trial was designed to determine if preoperative oral administration of D-Ribose, following by peri-operative and operative intravenous infusion of D-Ribose could improve the ejection fraction and other functional parameters of hearts that are cross-clamped for various cardiac surgical procedures. Thirty (30) patients meeting the inclusion and exclusion criteria and who have signed informed consent forms will be randomized to receive oral D-Ribose (15) or D-Glucose (placebo) (15) for seven or 14 days prior to their surgical procedure and intravenous 5% […] (5% D-Glucose in normal saline, 0.5 mL/kg/hour) or 10% pyrogen-free D-Ribose in 5% D5W at a dose of 100 mg/kg/hour for five (5) days through a pulmonary artery cordis) beginning at the time of aortic cross clamping. […] Patients will be evaluated baseline×2, (once prior to beginning oral test supplement and again within three days prior to surgical procedure), during and after surgery, and at days 1, 5 and 7. […] Patients will be evaluated for eligibility within three days to first test article administration and evaluation will be updated within three days prior to surgery. […] A medication history will be taken and all medications recorded in the case report. […]

[6] = system: Wistar rats, recovery from general anaesthesia; assay: planned rat sham abdominal surgery study under halothane anaesthesia; assay type: in vivo; settings: D-Ribose before, during and after sham operation, vs D-Glucose placebo
Method: Littered-paired Wistar rats will be preconditioned with oral D-Ribose (250 mg/day, 10 animals) as a test drug or D-Glucose (250 mg/day, 10 animals) as a placebo for five days. Following the preconditioning, the rats will be anesthetized with halothane, intubated for artificial respiration and paralyzed with curare. Following general anaesthesia, the rats will be given either the test drug or placebo, intravenously (IV). A two-inch abdominal incision will be made and the viscera will be carefully manipulated to simulate an abdominal exploratory surgery. The incision will be closed and the animals will be held under anaesthesia for one additional hour. Following that hour, anaesthesia will be discontinued and the IV infusion will be halted. The animals will be placed individually in activity cages and their activity will be assessed daily for five days. Test drug or placebo will be added to the drinking water at a dosage of 5% wt/vol. The blinded results will be observed for: first movement (return to consciousness following the sham operation) and daily activity over the first day and next five days. Food and water intake and gastrointestinal function will be measured.

[7] = system: sheep undergoing aortic valve replacement under general anaesthesia
[8] = system: healthy dog hearts after 20 minute normothermic global myocardial ischemia; settings: D-Ribose from reperfusion for at least four days; cited from earlier work
[9] = second hip replacement, oral ribose after anaesthesia

| Structure (SMILES) | degree of pain experienced during venous blood sampling [1] | patients who developed hypoglycemia (fingerstick glucose<70 mg/dl) ([2]; both, human, in vivo) | lowest glucose level ([2]; human, in vivo) | mean glucose level in those patients developing hypoglycemia ([2]; human, in vivo) | neurological or other clinical symptoms associated with hypoglycemia ([2]; human, in vivo) | mean Day 7 EF ([2]; ribose treated patients, Day 7, echocardiography, IV 100 mg/kg/hr, p=0.49 vs baseline) | mean baseline EF ([2]; ribose treated patients, baseline, echocardiography, IV 100 mg/kg/hr) | change of EF from baseline to Day 7 ([2]; ribose treated patients, placebo EF declined, treatment effect p=0.04) | greater increase in cardiac indices compared to controls [3] | level of pain [4, 9] | recovery to a feeling of alertness and energy [4, 9] | recovery to a feeling of alertness and energy ([4]; second knee replacement, D-Ribose pre- and postoperatively) | expected myocardial function and recovery [5] | expected movement after anaesthesia and activity during the following five days [6] | tolerability (metabolic or chemical abnormalities) ([7]; in vivo, iv) | time quiet and inactive after extubation ([7]; sheep given ribose) | time to eating solid food ([7]; sheep given ribose, some animals, after the quiet period) | time to assume a consciousness state upon weaning from the ventilator ([7]; sheep, vs animals not given ribose) | time to cardiac arrest with cardioplegia ([7]; sheep, vs animals not given ribose, difference not statistically significant) | ATP recovery [8] |
| --- | --- | --- | --- | --- | --- | --- | --- | --- | --- | --- | --- | --- | --- | --- | --- | --- | --- | --- | --- | --- |
| O=C[C@H](O)[C@@H](O)[C@H](O)[C@H](O)CO [glucose, D-Glucose] | reduced the degree of pain | – | – | – | – | – | – | – | – | – | – | – | – | – | – | – | – | – | – | – |
| O=C[C@H](O)[C@H](O)[C@H](O)CO [D-Ribose] | – | 28% | 31 mg/dL | 58 mg/dL | None of these patients developed neurological or other clinical symptoms | 41% | 44% | unchanged | 49% | less | more rapid | more rapid | better myocardial function | earlier movement after anaesthesia and increased activity | no metabolic or chemical abnormalities | about one | within the next hour | faster | somewhat faster | enhanced ATP recovery |

Reference: patent US20070105787A1, “Use of ribose in recovery from anaesthesia” (priority 2004, published 2007)
